For orientation: pEC50 means the negative decadic logarithm of the EC50, by convention in mol/L.

SMILES strings stand for the structures. pEC50: −log10 of the molar value. Several values for one entry are separate records, joined by “and”; a condition that tells them apart may be missing. Equal values may be shown once.

83 molecules from ChEMBL document CHEMBL1130269, “A 3D QSAR study of a series of HEPT analogues: the influence of conformational mobility on HIV-1 reverse transcriptase inhibition” (J Med Chem, 1997) can be followed below.

The target of the experiment is Human immunodeficiency virus type 1 reverse transcriptase (Human immunodeficiency virus 1, UniProt Q72547). Put plainly: Inhibitory concentration against HIV-1 reverse transcriptase.

The molecule `Cc1c(Sc2cccc(C(F)(F)F)c2)n(COCCO)c(=O)[nH]c1=O` gave a pEC50 of 4.35.
Under `CCc1c(Sc2cc(Cl)cc(Cl)c2)n(COCCO)c(=S)[nH]c1=O` stands 7.37; under `CCc1c(Sc2ccccc2)n(COCc2ccc(Cl)cc2)c(=S)[nH]c1=O`, 7.92; under `CCOCn1c(Sc2cc(C)cc(C)c2)c(CC)c(=O)[nH]c1=S`, 8.36.
As for `Cc1c(Cc2ccccc2)n(COCCO)c(=O)[nH]c1=O`, the pEC50 is 5.24.
Under `CCOCn1c(Sc2ccccc2)c(C)c(=O)[nH]c1=O` stands 6.48.
Molecule `CC(=O)c1cccc(Sc2c(C)c(=O)[nH]c(=O)n2COCCO)c1` gave a pEC50 of 5.14.
Next, `Cc1c(Sc2cccc(C#N)c2)n(COCCO)c(=O)[nH]c1=O`: 5.00; `CCc1c(Sc2ccccc2)n(COCCc2ccccc2)c(=O)[nH]c1=O`: 7.02.
Next, `CC(C)c1c(Sc2ccccc2)n(COCCO)c(=S)[nH]c1=O`: 7.23; `CCOCn1c(Cc2cc(C)cc(C)c2)c(C(C)C)c(=O)[nH]c1=O`: 9.22.
Under `Cc1ccc(Sc2c(C)c(=O)[nH]c(=O)n2COCCO)cc1` stands 3.66; under `CCOCn1c(Sc2ccccc2)c(CC)c(=O)[nH]c1=O`, 7.72; under `CCc1c(Sc2ccccc2)n(COCCO)c(=O)[nH]c1=O`, 6.96 and 6.92.
Molecule `CCOCn1c(Cc2ccccc2)c(C(C)C)c(=O)[nH]c1=O` [EMIVIRINE] showed a pEC50 of 8.38.
Under `COCCn1c(Cc2ccccc2)c(C(C)C)c(=O)[nH]c1=O` stands 7.28; under `Cc1ccccc1Sc1c(C)c(=O)[nH]c(=O)n1COCCO`, 4.15; under `Cc1c(Sc2cccc(F)c2)n(COCCO)c(=O)[nH]c1=O`, 5.48.
Next, `CCc1c(Sc2cc(C)cc(C)c2)n(COCc2ccccc2)c(=S)[nH]c1=O`: 8.16.
`Cc1c(Sc2ccccc2[N+](=O)[O-])n(COCCO)c(=O)[nH]c1=O` showed a pEC50 of 3.85.
Next, `Cc1cc(C)cc(Cc2c(C(C)C)c(=O)[nH]c(=O)n2COCCO)c1`: 8.57.
`Cc1c(Sc2cccc(C(C)(C)C)c2)n(COCCO)c(=O)[nH]c1=O` gave a pEC50 of 4.92. This pEC50 is 3.65 log units lower than that of the molecule before.
Next, `Cc1c(Sc2cccc(Cl)c2)n(COCCO)c(=O)[nH]c1=O`: 4.89.
Under `CCOCn1c(Sc2ccccc2)c(C(C)C)c(=O)[nH]c1=S` stands 7.85; under `Cc1c(Sc2ccccc2)n(COCc2ccccc2)c(=O)[nH]c1=O`, 7.06; under `CCOCn1c(Sc2ccccc2)c(CC)c(=O)[nH]c1=S`, 7.59.
As for `CCc1c(Sc2ccccc2)n(C/C=C/c2ccco2)c(=O)[nH]c1=O`, the pEC50 was 6.77.
For the molecule `COC(=O)c1cccc(Sc2c(C)c(=O)[nH]c(=O)n2COCCO)c1`, the pEC50 is 5.10.
Take `COc1ccccc1Sc1c(C)c(=O)[nH]c(=O)n1COCCO`: the pEC50 was 4.72.
The molecule `CCc1c(Sc2ccccc2)n(COC2CCCCC2)c(=O)[nH]c1=O` had a pEC50 of 5.40.
With `Cc1c(Oc2ccccc2)n(COCCO)c(=O)[nH]c1=O`, the pEC50 was 5.05.
Next, `CCOCn1c(Cc2ccccc2)c(CC)c(=O)[nH]c1=O`: 7.39.
Under `Cc1c(Sc2cccc(I)c2)n(COCCO)c(=O)[nH]c1=O` stands 5.00.
Turning to `Cc1cccc(Sc2c(C)c(=O)[nH]c(=O)n2COCCO)c1`, the pEC50 was 5.59. Against the preceding molecule, the pEC50 is 0.59 log units higher.
Next, `CCc1c(Sc2ccccc2)n(C/C=C/c2cccs2)c(=O)[nH]c1=O`: 7.10; `CCOCn1c(Sc2ccccc2)c(C2CC2)c(=O)[nH]c1=S`: 7.02; `CC(C)c1c(Cc2ccccc2)n(COCCO)c(=O)[nH]c1=O`: 7.20.
Under `CCc1c(Cc2ccccc2)n(COCCO)c(=O)[nH]c1=O` stands 6.46; under `Cc1c(Sc2ccccc2)n(C/C=C/c2cccnc2)c(=O)[nH]c1=O`, 7.00.
Next, `CCc1c(Sc2cc(C)cc(C)c2)n(C/C=C/c2ccco2)c(=O)[nH]c1=O`: 7.40.
Molecule `Cc1cc(C)cc(Sc2c(C)c(=O)[nH]c(=S)n2COCCO)c1` showed a negative logarithm of the EC50 (pEC50) of 6.66.
Under `CCOCn1c(Sc2cc(Cl)cc(Cl)c2)c(CC)c(=O)[nH]c1=O` stands 8.13; under `COc1cccc(Sc2c(C)c(=O)[nH]c(=O)n2COCCO)c1`, 4.66; under `CCc1c(Sc2cc(C)cc(C)c2)n(COCc2ccccc2)c(=O)[nH]c1=O`, 8.49.
Next, `CCc1c(Cc2ccccc2)n(CCOC)c(=O)[nH]c1=O`: 6.60; `CCc1c(Sc2cc(Cl)cc(Cl)c2)n(COCCO)c(=O)[nH]c1=O`: 7.85.
Next, `CCc1c(Sc2ccccc2)n(COCc2ccccc2)c(=O)[nH]c1=O`: 8.23; `CCc1c(Cc2cc(C)cc(C)c2)n(COCCO)c(=O)[nH]c1=O`: 7.89.
Take `C=Cc1c(Sc2ccccc2)n(COCCO)c(=O)[nH]c1=O`: the pEC50 is 5.33.
Next, `Cc1c(Sc2ccc(C3CCCCC3)cc2)n(COCCO)c(=O)[nH]c1=O`: 5.46; `CCOCn1c(Sc2ccccc2)c(C2CC2)c(=O)[nH]c1=O`: 7.00.
Under `CCc1c(Sc2cc(C)cc(C)c2)n(COCCO)c(=S)[nH]c1=O` stands 8.11; under `COCn1c(Sc2ccccc2)c(C)c(=O)[nH]c1=O`, 5.68; under `CCOCn1c(Sc2cc(C)cc(C)c2)c(CC)c(=O)[nH]c1=O`, 8.27.
Next, `CCc1c(Sc2ccccc2)n(CC(C)C)c(=S)[nH]c1=O`: 6.66; `Cc1c(Sc2cccc([N+](=O)[O-])c2)n(COCCO)c(=O)[nH]c1=O`: 4.47; `CCOCn1c(Sc2cc(Cl)cc(Cl)c2)c(CC)c(=O)[nH]c1=S`: 7.89.
In turn, `CCc1c(Sc2ccccc2)n(COCC2CCCCC2)c(=O)[nH]c1=O` gave a pEC50 of 6.35. Against the preceding molecule, the pEC50 is 1.54 log units lower.
For the molecule `Cc1c(Sc2cccc(Br)c2)n(COCCO)c(=O)[nH]c1=O`, the pEC50 is 5.24. This pEC50 is 1.11 log units lower than that of the molecule before.
For `CCc1c(Sc2ccccc2)n(COC2CCCCC2)c(=S)[nH]c1=O`, the pEC50 was 5.80.
With `COCCOCn1c(Sc2ccccc2)c(C)c(=O)[nH]c1=O`, the pEC50 is 5.06.
Take `CCCCn1c(Sc2ccccc2)c(C)c(=O)[nH]c1=O`: the pEC50 was 5.92.
In turn, `CCc1c(Sc2ccccc2)n(C/C=C/c2ccccc2)c(=O)[nH]c1=O` gave a pEC50 of 6.72.
Under `CCc1c(Sc2ccccc2)n(CCCc2ccccc2)c(=O)[nH]c1=O` stands 6.54; under `CCn1c(Sc2ccccc2)c(C)c(=O)[nH]c1=O`, 5.66.
For the molecule `Cc1cc(C)cc(Sc2c(C(C)C)c(=O)[nH]c(=S)n2COCCO)c1`, the pEC50 was 8.30.
Next, `Cc1c(Sc2cc(Cl)cc(Cl)c2)n(COCCO)c(=O)[nH]c1=O`: 5.89.
Next, `CCc1c(Sc2ccccc2)n(CC(C)C)c(=O)[nH]c1=O`: 6.47.
Under `CC(C)c1c(Sc2ccccc2)n(COCc2ccccc2)c(=S)[nH]c1=O` stands 8.17; under `CCc1cccc(Sc2c(C)c(=O)[nH]c(=O)n2COCCO)c1`, 5.57.
The molecule `CCCOCn1c(Sc2ccccc2)c(C)c(=O)[nH]c1=O` showed a pEC50 of 5.44.
Next, `CCc1c(Sc2ccccc2)n(COCC2CCCCC2)c(=S)[nH]c1=O`: 6.46; `CCc1c(Sc2ccccc2)n(COCCc2ccccc2)c(=S)[nH]c1=O`: 7.04.
`CC(C)c1c(Sc2ccccc2)n(COCc2ccccc2)c(=O)[nH]c1=O` showed a pEC50 of 8.57.
In turn, `Cc1c(Sc2ccccc2)n(C/C=C/c2ccccc2)c(=O)[nH]c1=O` had a pEC50 of 5.60.
Next, `CCOCn1c(Sc2ccccc2)c(C(C)C)c(=O)[nH]c1=O`: 7.92; `CCc1c(Sc2cc(C)cc(C)c2)n(C/C=C/c2cccs2)c(=O)[nH]c1=O`: 7.40.
Next, `CCc1c(Sc2ccccc2)n(COCc2ccc(C)cc2)c(=S)[nH]c1=O`: 7.11; `O=c1[nH]c(=O)n(COCCO)c(Sc2ccccc2)c1I`: 5.37; `CCOCn1c(Cc2cc(C)cc(C)c2)c(CC)c(=O)[nH]c1=O`: 8.80.
Next, `CC(C)c1c(Sc2ccccc2)n(COCCO)c(=O)[nH]c1=O`: 7.20; `Cc1c(Sc2cccc(O)c2)n(COCCO)c(=O)[nH]c1=O`: 4.09.
Regarding `CCc1c(Sc2ccccc2)n(COCc2ccccc2)c(=S)[nH]c1=O`, the pEC50 is 8.11.
